In brackets after ≈: the same amount, converted by molar mass.

Common to all, as to format: functional
Assay [1] relates to Staphylococcus aureus. In words: Antibacterial activity against Staphylococcus aureus ATCC 25923 after 16 hrs by CLSI-based broth microdilution method. The following applies: ATCC 25923, 16 h.
Assay [2] has as its system Staphylococcus aureus. In words: Antibacterial activity against methicillin-resistant Staphylococcus aureus ATCC 33591 after 16 hrs by CLSI-based broth microdilution method. The following applies: ATCC 33591, 16 h. On the technique in general: In broth dilution the organism is exposed to a series of concentrations in liquid medium.
Assay [3] deals with Bacillus cereus. In words: Antibacterial activity against Bacillus cereus ATCC 14579 after 16 hrs by CLSI-based broth microdilution method. The settings on record: ATCC 14579, 16 h.

Consider `CCC/C=C/CCCCc1cccc(O)c1`, for which the MIC in assay [1], in assay [2] and in assay [3] was 16 µg/mL (≈ 73.3 µM) in each case.
Turning to `C#CCCC/C=C/CCCCc1cccc(O)c1`, the MIC in assay [1], in assay [2] and in assay [3] was 8 µg/mL (≈ 33 µM) each time.
For `CC(=O)NC[C@H]1CN(c2ccc(N3CCOCC3)c(F)c2)C(=O)O1` [LINEZOLID], the MIC (in general, the smallest concentration in the dilution series that meets the test's criterion for growth inhibition) in assay [1] stood at 0.5 µg/mL (≈ 1.48 µM); in assay [2], 1 µg/mL (≈ 2.96 µM); in assay [3], 1 µg/mL (≈ 2.96 µM).

Source of the values: ChEMBL document CHEMBL4619764, “Synthesis of the Cyanobacterial Antibiotics Anaephenes A and B” (2020).
